Here are results for two compounds from PMC12028158, “Synthesis and In Vitro Evaluation of the Anticancer Effect of Novel Phosphonium Vindoline Derivatives” (International Journal of Molecular Sciences, 2025).

Assay [1] relates to 60 human tumor cell lines (NCI60). Also noted: method as in PMID 39063170. To be noted: previous work; cited from earlier work.
For another assay, the system named is A2780. Nature of the assay: MTT antiproliferative assay. The assay is classed as cell-based, human. How it is done:
(§1) The antiproliferative properties of the tested compounds were additionally determined using the MTT assay against a panel of human adherent cancer cell lines isolated from breast (MCF-7 and MDA-MB-231), cervical (HeLa and SiHa), and ovarian (A2780) tumors and also on the NIH/3T3 fibroblast cell line (Table 3). IC50 values were calculated from a wider concentration range (0.1–30 μM) when higher than 50% cell growth inhibition was obtained at 10 μM (Table 4). Cisplatin was used as a reference compound. […] The noncancerous fibroblast cell line NIH/3T3 was used to gather preliminary data regarding the cancer selectivity of vindolin derivatives. […] The tumor selectivity of compound 9g, expressed as the ratio of IC50 on cancer cells and fibroblasts, is substantially higher than that of cisplatin (Table 4).
(§2) The antiproliferative effects of the prepared derivatives were evaluated in vitro using the MTT assay against a panel of human adherent cancer cell lines, including breast (MDA-MB-231, MCF-7), cervical (SiHa, HeLa), and ovarian (A2780) cancer cells. The noncancerous fibroblast cell line NIH/3T3 was included to obtain data concerning the tumor selectivity of the test substances. All cell lines were sourced from the European Collection of Cell Cultures (Salisbury, UK), except for SiHa (American Tissue Culture Collection (Manassas, VA, USA). All cell lines were maintained in Eagle’s Minimal Essential Medium (EMEM) supplemented with 10% fetal bovine serum (FBS), 1% non-essential amino acids, and a mixture of penicillin, streptomycin, and amphotericin B. The cells were maintained in a humidified atmosphere containing 5% CO2 at 37 °C. The media and the cell culture supplements were procured from Capricorn Scientific Ltd. (Ebsdorfergrund, Germany). Cells were seeded into 96-well microplates at 5000/well and, the next day, treated with vindoline derivatives at two concentrations (10 or 30 μM) for 72 h under cell culturing conditions. […] When higher than 50% cell growth inhibition was observed, the assay was repeated using a wide concentration range (0.1–30 μM). The IC50 values were calculated using GraphPad Prism software 10.3.1 (GraphPad Software, San Diego, CA, USA). Two independent experiments were performed with at least five replicates per condition.

In another assay the test system is HeLa. The assay is described as follows: MTT antiproliferative assay. Format: cell-based, human. As to the method: as §1, §2
A general note: Tetrazolium dyes change colour on reduction, which living cells bring about.

The next assay deals with MCF-7. Nature of the assay: MTT antiproliferative assay. The assay is classed as cell-based, human. As to the method: as §1, §2
A further assay concerns MDA-MB-231. Nature of the assay: MTT antiproliferative assay. Format: cell-based, human. As to the method:
as §1, §2

The test system of the next assay is SiHa. Nature of the assay: MTT antiproliferative assay. The assay is classed as cell-based, human. How it is done: as §1, §2
A further assay concerns A2780 cells. Nature of the assay: Cell cycle analysis (propidium iodide flow cytometry). The assay is classed as cell-based, human. How it is done:
Based on its promising IC50 and selectivity, compound 9g was selected for further investigations, including cell cycle analysis. Treatment with derivative 9g induced concentration- and time-dependent cell cycle disturbances in A2780 ovarian cancer cells, accompanied by apoptosis (Figure 3). […] After a 48 h exposure, the lower concentration maintained this pattern (G0/G1 elevation and S and G2/M reduction).
A2780 cells were seeded onto 12-well plates at densities of 200,000 cells per well and the plates were then incubated overnight under standard cell culture conditions. Then, the media were removed and the cells in each well were washed with phosphate-buffered saline (PBS) and treated with 1000 µL of fresh medium containing 1.5 or 3.0 µM of compound 9g for 24 or 48 h. After the incubation, the cells were washed with PBS and harvested using trypsinization. The cell suspensions were centrifuged at 1100 rpm for 5 min at room temperature. The cells were rewashed and fixed in 500 µL of cold 70% ethanol for 30 min. Following the fixation, cells were centrifuged at 1300 rpm for 5 min at 4 °C and the pellets were resuspended in 300 µL staining solution (containing 10 µg/mL propidium iodide, 0.1% Triton-X, 0.1% sodium citrate, and 10 µg/mL RNase-A in water). The samples were stored in the dark at room temperature for 30 min. The stained cells were then analyzed using a flow cytometer (CytoFLEX, Beckman Coulter, Brea, CA, USA), recorded by CytExpert Software 2.5.0.77 (Beckman Coulter), ensuring that at least 20,000 events per sample were evaluated. The percentages of cells in different phases of the cell cycle (subG1, G1, S, and G2/M) were determined using ModFit LT 3.3.11 software (Verity Software House, Topsham, ME, USA); the subG1 fraction indicated the apoptotic cell population, as referenced by Vermes et al.. […]
Background: A flow cytometer gives signals particle by particle.

In assay [2] the test system is panel of human adherent cancer cell lines. The assay is described as follows: MTT antiproliferative assay, whole cancer panel. The assay is classed as cell-based. To be noted: Homo sapiens. As to the method: as §1, §2

Molecules are shown by their SMILES.

As to `CCC12C=CCN3CC[C@@]4(c5ccc(OC)cc5N(C)[C@H]4[C@@](O)(C(=O)OC)[C@@H]1OC(C)=O)[C@@H]32` (some centres unmarked) [compound 2, vindoline], the “antiproliferative effects (in words)” value in assay [1] was “do not exert antiproliferative effects”.
In general, inhibition refers to the relative decrease from the control value, in per cent. For orientation: IC50 means the concentration that inhibits the measured activity by half. Regarding `CC[C@]12C=CCN3CC[C@@]4(c5ccc(OC)cc5N(C)[C@H]4[C@@](O)(C(=O)OC)[C@@H]1OC(=O)CCC[P+](c1ccccc1)(c1ccccc1)c1ccccn1)[C@@H]32` [9g], the inhibition at 10 µM in the assay on A2780 (Homo sapiens, A2780, 10 μM, 72 h, read-out: Growth Inhibition (%) ± SEM) is 79.4 ± 2.63%; in the assay on HeLa (Homo sapiens, HeLa, 10 μM, 72 h, read-out: Growth Inhibition (%) ± SEM) it was 61.5 ± 2.35%; in the assay on MCF-7 (Homo sapiens, MCF7, MCF-7, 10 μM, 72 h, read-out: Growth Inhibition (%) ± SEM), 81.9 ± 0.84%; in the assay on MDA-MB-231 (Homo sapiens, MDA-MB-231, 10 μM, 72 h, read-out: Growth Inhibition (%) ± SEM) it was 72.04 ± 0.35%; in the assay with SiHa (Homo sapiens, SiHa, 10 μM, 72 h, read-out: Growth Inhibition (%) ± SEM), 62.5 ± 0.87%; in assay [2] (10 μM, against all tested cancer cells, read-out: cell growth inhibition), greater than 60%. Moreover, the inhibition at 30 µM was 85.5% in the assay with A2780 (Homo sapiens, A2780, 30 μM, 72 h, read-out: Growth Inhibition (%) ± SEM (converted)); 68.5% with HeLa (Homo sapiens, HeLa, 30 μM, 72 h, read-out: Growth Inhibition (%) ± SEM (converted)); 89.9% with MCF-7 (Homo sapiens, MCF7, MCF-7, 30 μM, 72 h, read-out: Growth Inhibition (%) ± SEM (converted)); 87.7% in the assay with MDA-MB-231 (Homo sapiens, MDA-MB-231, 30 μM, 72 h, read-out: Growth Inhibition (%) ± SEM (converted)); 83.8% with SiHa (Homo sapiens, SiHa, 30 μM, 72 h, read-out: Growth Inhibition (%) ± SEM (converted)). The IC50 with A2780 (Homo sapiens, A2780, MTT, 72 h, read-out: IC50 Value (μM) ± SEM) is 1.5 ± 0.2 µM; with HeLa (Homo sapiens, HeLa, MTT, 72 h, read-out: IC50 Value (μM) ± SEM), 6.48 ± 0.12 µM; with MCF-7 (Homo sapiens, MCF7, MCF-7, MTT, 72 h, read-out: IC50 Value (μM) ± SEM), 2.56 ± 0.1 µM; in the assay with MDA-MB-231 (Homo sapiens, MDA-MB-231, MTT, 72 h, read-out: IC50 Value (μM) ± SEM), 3.35 ± 0.12 µM; with SiHa (Homo sapiens, SiHa, MTT, 72 h, read-out: IC50 Value (μM) ± SEM) it was 2.42 ± 0.05 µM; in assay [2] (range over the cancer cells) it was 1500 to 6480 nM. Further, the “Selectivity Ratio” value in the assay on A2780 (ratio of IC50 on A2780 cells and NIH/3T3 fibroblasts) is 0.10; with HeLa (ratio of IC50 on HeLa cells and NIH/3T3 fibroblasts), 0.45; in the assay on MCF-7 (ratio of IC50 on MCF-7 cells and NIH/3T3 fibroblasts) it was 0.18; in the assay on MDA-MB-231 (ratio of IC50 on MDA-MB-231 cells and NIH/3T3 fibroblasts) it was 0.23; in the assay on SiHa (ratio of IC50 on SiHa cells and NIH/3T3 fibroblasts) it was 0.17. In addition, in the assay with A2780 cells (A2780, 1.5 μM and 3.0 μM, 24 h), the “S and G2/M phase populations” value is listed as “decreasing”. Also, the “proportion of cells in the G0/G1 phase” value in the assay on A2780 cells (A2780, 1.5 μM and 3.0 μM, 24 h) is “significantly increased”. Also, the subG1 cell population entry in the assay with A2780 cells (A2780, particularly after the more prolonged exposure (48 h)) was “remarkable increase”.
